Where “and” joins values, the source holds several entries; their conditions need not be identical. Equal entries are not always repeated. Where two headings read alike, the source gives them in different places.
Key:
human integrin αvβ6 [1] = target: T1, human integrin αvβ6 (Homo sapiens, UniProt P06756+P18564, DEL708-788); experiment: Equilibrium binding of yeast-displayed knottins to soluble integrin αvβ6 (two-colour flow cytometry, KD)
T1 construct: purchased R&D Systems

human integrin αvβ6 [2] = target: T1, human integrin αvβ6; parameters: method as in Kimura et al., Clin. Can. Res., 2012; conditions: ref Kimura et al., Clin. Can. Res., 2012; cited from earlier work
pancreatic cancer = experiment: [18F]FP-R01-MG-F2 vs [18F]FDG PET/CT in a pancreatic cancer patient (Stanford); conditions: one patient
Method: The line was flushed with at least 10 ml normal saline after injection. • Blood samples for blood time activity measurements were taken at 1, 3, 5, and 10 min after tracer administration and then at 30-minute intervals for up to 3 h after tracer injection. The counts in whole blood and plasma were measured by gamma counter (Perkin Elmer Wizard 1470). […] The scan was performed over the abdominal region to include the pancreas. Attenuation correction was employed via CT (120 kV, 10 mA). […] The scan was performed over the chest region. Attenuation correction was employed via CT (120 kV, 10 mA). • Static total-body (vertex-to-toe) PET/CT scans were acquired at 60 min and 120 min post injection. CT was performed at 120 kV; it was dose-modulated based on body habitus with current ranging from 10-105 mA for the 60-minute scan. […] EKG data was analyzed to assess changes in overall rhythm of the heart. • On the day of the study, participants were asked to void frequently to reduce radiation exposure. Urine samples were collected at prior to tracer administration (baseline), prior to the static PE scans, at the end of the study day 1, and at the follow up visits 1 day and 7 days after tracer administration.
Upon co-registration of the PET and CT images, the CT images were used to determine regions of interest for the organs or tissues reported in the manuscript. These ROIs were applied to the PET images of the brain, pituitary gland, breast, lower and upper large intestine, small intestine, stomach, pancreas, heart wall, liver, lung, muscle, red marrow, bone, skin, and thyroid gland. For high uptake organs such as the kidneys, bladder and for the whole body, threshold-based segmentation of PET images were used to determine a close-fitting ROI around the entire organ or whole body. In order to determine accuracy, these PET-derived ROIs were compared to the CT overlay for a close match.

cervical cancer = experiment: [18F]FDG PET/CT (PUMC Hospital); assay type: in vivo, human; conditions: second cervical cancer patient
Method: All patients were instructed to avoid strenuous work or exercise for at least 24 h prior to the scheduled study date. Study participants were also instructed to fast for at least 4 h before intravenous administration of the PET tracer. Patients were administered [^18F]FDG at a dosage of 5.55 MBq (0.15 mCi) per kilogram body weight. Immediately after tracer administration, patients were allowed to rest and relax in a warm, darkened room for approximately 45–60 min. Next, each patient emptied their bladder. The PET scan that followed spanned a region from the mid-thigh area to the base of the skull (six bed positions, 2 min bed^−1).

T1 sequence (P06756 31-992 limits assumed, stated change not applied): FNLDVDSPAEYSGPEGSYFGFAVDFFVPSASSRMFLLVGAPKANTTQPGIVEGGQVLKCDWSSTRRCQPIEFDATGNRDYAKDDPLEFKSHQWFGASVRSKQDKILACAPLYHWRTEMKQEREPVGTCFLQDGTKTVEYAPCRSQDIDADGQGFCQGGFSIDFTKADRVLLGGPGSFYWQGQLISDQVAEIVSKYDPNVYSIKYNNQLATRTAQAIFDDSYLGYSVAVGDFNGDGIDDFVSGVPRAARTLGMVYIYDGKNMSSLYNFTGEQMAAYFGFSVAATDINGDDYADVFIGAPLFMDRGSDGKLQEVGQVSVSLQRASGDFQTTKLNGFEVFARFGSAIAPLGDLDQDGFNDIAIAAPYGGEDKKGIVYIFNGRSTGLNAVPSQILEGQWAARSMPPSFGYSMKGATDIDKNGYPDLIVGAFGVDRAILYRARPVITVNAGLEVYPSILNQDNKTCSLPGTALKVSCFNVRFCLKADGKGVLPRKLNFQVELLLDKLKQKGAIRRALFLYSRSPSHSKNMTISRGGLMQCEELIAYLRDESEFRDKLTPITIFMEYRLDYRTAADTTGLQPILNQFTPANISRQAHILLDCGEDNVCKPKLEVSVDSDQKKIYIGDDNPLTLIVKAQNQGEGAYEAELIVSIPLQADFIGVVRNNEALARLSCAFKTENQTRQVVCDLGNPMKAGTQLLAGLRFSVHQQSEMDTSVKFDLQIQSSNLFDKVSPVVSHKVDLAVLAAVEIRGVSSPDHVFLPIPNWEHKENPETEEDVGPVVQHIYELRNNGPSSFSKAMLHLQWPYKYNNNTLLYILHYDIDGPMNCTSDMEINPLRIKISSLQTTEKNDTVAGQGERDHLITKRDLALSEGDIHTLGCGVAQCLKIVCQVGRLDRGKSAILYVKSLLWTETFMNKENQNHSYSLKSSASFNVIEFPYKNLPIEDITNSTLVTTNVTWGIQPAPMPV
T1 sequence (P18564 22-707 limits assumed, stated change not applied): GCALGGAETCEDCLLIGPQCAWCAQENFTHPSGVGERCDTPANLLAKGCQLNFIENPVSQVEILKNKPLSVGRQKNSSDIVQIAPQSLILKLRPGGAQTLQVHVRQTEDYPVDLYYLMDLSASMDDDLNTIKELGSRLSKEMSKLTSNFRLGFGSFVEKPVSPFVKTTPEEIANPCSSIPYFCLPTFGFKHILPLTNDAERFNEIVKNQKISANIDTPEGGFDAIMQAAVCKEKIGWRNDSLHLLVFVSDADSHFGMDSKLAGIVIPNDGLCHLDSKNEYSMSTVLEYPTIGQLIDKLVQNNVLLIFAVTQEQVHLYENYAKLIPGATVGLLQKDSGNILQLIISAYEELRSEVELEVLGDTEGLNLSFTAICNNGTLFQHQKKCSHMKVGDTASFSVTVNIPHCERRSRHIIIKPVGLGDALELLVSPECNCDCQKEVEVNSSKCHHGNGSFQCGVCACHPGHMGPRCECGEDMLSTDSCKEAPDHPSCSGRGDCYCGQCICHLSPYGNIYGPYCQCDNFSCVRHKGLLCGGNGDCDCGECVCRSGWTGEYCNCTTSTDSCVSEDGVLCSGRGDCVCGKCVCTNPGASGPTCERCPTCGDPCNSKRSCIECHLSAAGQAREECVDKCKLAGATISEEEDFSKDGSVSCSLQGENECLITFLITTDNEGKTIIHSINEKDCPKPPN

| SMILES | Kd (human integrin αvβ6 [1]) | Kd (human integrin αvβ6 [2]) | SUVmean, liver (pancreatic cancer; 1 h p.i.) | SUVmean, small intestines (pancreatic cancer; 1 h p.i.) | SUVmean, stomach (pancreatic cancer; 1 h p.i.) | SUVmean, pancreatic tumor (pancreatic cancer; ~1 h p.i.) | SUVmean, cervical tumor (cervical cancer) |
| --- | --- | --- | --- | --- | --- | --- | --- |
| CC[C@H](C)[C@@H]1NC(=O)[C@@H](NC(=O)CN)CSSC[C@@H]2NC(=O)[C@H](C)NC(=O)CNC(=O)[C@@H]3CCCN3C(=O)[C@@H]3CSSC[C@@H](C(=O)NCC(N)=O)NC(=O)[C@H](Cc4ccc(O)cc4)NC(=O)CNC(=O)[C@H](CC(N)=O)NC(=O)CNC(=O)[C@H](CCCNC(=N)N)NC(=O)[C@H](CSSC[C@H](NC(=O)[C@H](CCCNC(=N)N)NC(=O)[C@H](Cc4ccccc4)NC(=O)[C@H](CC(C)C)NC(=O)[C@H](CC(C)C)NC(=O)[C@H]([C@@H](C)O)NC(=O)CNC(=O)[C@H](CC(C)C)NC(=O)[C@H](CC(=O)O)NC(=O)[C@H]([C@@H](C)O)NC(=O)[C@H](CCCNC(=N)N)NC(=O)[C@H](CCSC)NC(=O)[C@H](CC(N)=O)NC(=O)[C@H](CC(C)C)NC1=O)C(=O)N[C@@H](CCCNC(=N)N)C(=O)N[C@@H](CCCNC(=N)N)C(=O)N[C@@H](CC(=O)O)C(=O)N[C@@H](CO)C(=O)N[C@@H](CC(=O)O)C(=O)N3)NC(=O)[C@H]([C@@H](C)CC)NC2=O [R01] | ~1 nM | ~3 nM |  |  |  |  |  |
| OC[C@H]1OC(O)[C@H]([18F])[C@@H](O)[C@@H]1O (stereo partly shown) [[^18F]FDG, reference compound] |  |  | 2.9 | 2.5 | 0.16 | 4.1 and ~ 4 | 4.1 |
